Assay results published in US20080312581A1, “Peptosomes for Use in Acoustically Mediated Intracellular Drug Delivery in vivo” (Biovaluation & Analysis, Inc., priority 2007, published 2008).

Test system: Henrietta Lacks (HeLa) cells and human aortic smooth muscle cells (AoSMC)
Experiment: Ultrasound-mediated peptosome rupture and intracellular calcein delivery, flow cytometry
Type: cell-based
Conditions: calcein released from peptosomes, contrast agent present
Excerpt: Ultrasound. Ultrasonic energy is produced using an immersible, focused, piezoceramic transducer. In this experimental system, two different matching resistance networks are necessary, allowing production of sound at 1.0 MHz and 3.0 MHz, similar to a method known in the art (Guzmán et al., 2001a, 2001b, 2002, and 2003; and […] et al., 2006). A sinusoidal waveform is produced by, for example, programmable waveform generators (Stanford Research Instruments, Sunnyvale, Calif.) used in conjunction to control pulse length, frequency, and peak-to-peak voltage. The sinusoidal waveform is amplified by an RF broadband power amplifier (Electronic Navigation Industries, Rochester, N.Y.) before passing through a matching network and controlling the response of the transducer. The transducer is housed in a polycarbonate tank (FIG. 11 [601]) -34.5×32×40 cm; containing approximately 34 liters of deionized, distilled, and partially degassed water at room temperature (i.e., 22° C. to 23° C.). A thick acoustic absorber is mounted opposite the transducer to minimize standing-wave formation (not illustrated). […] A metal rod (606) is immediately inserted into the open end of the sample chamber and then attached to the three-axis positioning system (603), placing the sample in the desired location as determined by the hydrophone (604). […]

Compound: O=C(O)CN(CC(=O)O)Cc1cc2c(cc1O)Oc1cc(O)c(CN(CC(=O)O)CC(=O)O)cc1C21OC(=O)c2ccccc21 [calcein, Calcein]
- calcein uptake into cells (mild ultrasound conditions): low levels
- calcein uptake into cells (moderate ultrasound conditions): as many as one-third of cells
